The experiment deals with T1, aldose reductase (Bos taurus, UniProt P16116).
T1 construct: purified aldose reductase is isolated in known manner from bovine lenses; from tissue; host or cells: bovine lens
The experiment can be described thus: in vitro inhibition of purified aldose reductase from bovine lenses (reduction of glucose to sorbitol, spectrophotometric). The note with it: aldose reductase preparation obtained from bovine lenses; read-out: concentration producing a 50% reduction in the conversion of glucose to sorbitol. The format is biochemical. The protocol:
Thus, purified aldose reductase is isolated in known manner from bovine lenses. The percentage inhibition of this enzyme's ability in vitro to reduce aldoses to polyhydric alcohols, and particularly to reduce glucose to sorbitol, caused by a test compound is then determined using standard spectrophotometric methods. In this test the compounds of formula I in general show significant inhibition of the enzyme aldose reductase at a concentration of about 10^-8 M.

Molecules are shown by their SMILES.

As for `O=C1NC(=O)C2(N1)C(=O)N(Cc1ccc(Br)cc1F)c1c(C(F)(F)F)cccc12` (racemic) [A, 1'-(4-bromo-2-fluorobenzyl)-7'-(trifluoromethyl)-spiro[imidazolidine-4,3'-indoline]-2,2',5-trione], the IC50 was found to be 10.5 nM.

Source of the values: patent US4539329A, “7'-Trifluoromethyl-spiro[imidazolidine-4,3'-indoline]-2,2',5-triones as aldose reductase inhibitors” (Imperial Chemical Industries, plc, priority 1982, dated 1985).
